Source: patent US9586961B2, “Homopiperazine derivatives as protein tyrosine kinase inhibitors and pharmaceutical use thereof” (LEO PHARMA A/S, priority 2010, dated 2017)

How the values were obtained:
Type in all cases: biochemical
JAK1 = biological target: T1, JAK1 (Homo sapiens, UniProt P23458); test: JAK1 kinase assay (HTRF, inhibition of phosphorylation of a synthetic peptide); details: catalytic domain aa 850-1154, GST-tag; 7 μM ATP (Km); read-out: JAK1 kinase inhibitory activity (EC50)
T1 construct: JAK1 (aa 850-1154) and TYK2 (aa 871-1187) are expressed with an N-terminally fused GST-tag; GST (N); purchased Carna Biosciences, Inc; host or cells: baculovirus expression system
Method in brief: (§1)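 Baculovirus-expressed human catalytic domains (GST-JAK1, GST-TYK2, His-JAK2, His-JAK3) phosphorylated 1 μM TK substrate-biotin at ATP Km (JAK1 7 μM, JAK2 4 μM, JAK3 2 μM, TYK2 13 μM) in pH 7.0 Hepes for 20-30 min at RT, 0.75% DMSO. EDTA stop, then overnight streptavidin-XL665/cryptate-antibody detection and HTRF read.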

JAK2 = biological target: T2, JAK2 (Homo sapiens, UniProt O60674); test: JAK2 kinase assay (HTRF, inhibition of phosphorylation of a synthetic peptide); details: catalytic domain, His-tag; 4 μM ATP (Km); read-out: JAK2 kinase inhibitory activity (EC50)
T2 construct: All four purified enzymes contain only the catalytic domain; His (N); purchased Carna Biosciences, Inc; host or cells: baculovirus expression system
Method in brief: as §1

JAK3 = biological target: T3, JAK3 (Homo sapiens, UniProt P52333); test: JAK3 kinase assay (HTRF, inhibition of phosphorylation of a synthetic peptide); details: catalytic domain, His-tag; 2 μM ATP (Km); read-out: JAK3 kinase inhibitory activity (EC50)
T3 construct: All four purified enzymes contain only the catalytic domain; His (N); purchased Carna Biosciences, Inc; host or cells: baculovirus expression system
Method in brief: as §1

T3 sequence (P52333 822-1111 limits assumed): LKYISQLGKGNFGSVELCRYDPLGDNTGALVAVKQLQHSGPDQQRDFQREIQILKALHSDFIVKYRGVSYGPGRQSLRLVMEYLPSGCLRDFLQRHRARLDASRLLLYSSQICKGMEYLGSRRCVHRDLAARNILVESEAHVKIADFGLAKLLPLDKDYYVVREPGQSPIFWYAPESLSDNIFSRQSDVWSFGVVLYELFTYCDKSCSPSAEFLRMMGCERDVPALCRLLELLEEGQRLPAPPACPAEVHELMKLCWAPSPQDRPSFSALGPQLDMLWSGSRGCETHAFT
T1 sequence (P23458 850-1154): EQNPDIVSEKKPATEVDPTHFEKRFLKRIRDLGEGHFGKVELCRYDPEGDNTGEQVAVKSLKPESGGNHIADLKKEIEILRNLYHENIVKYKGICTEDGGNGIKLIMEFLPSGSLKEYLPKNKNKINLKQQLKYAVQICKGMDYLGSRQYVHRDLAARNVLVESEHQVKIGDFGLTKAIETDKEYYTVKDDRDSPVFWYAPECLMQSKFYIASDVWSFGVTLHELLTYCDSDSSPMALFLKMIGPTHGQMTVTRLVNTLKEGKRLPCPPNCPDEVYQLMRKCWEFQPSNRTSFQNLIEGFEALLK
T2 sequence (O60674 849-1124 limits assumed): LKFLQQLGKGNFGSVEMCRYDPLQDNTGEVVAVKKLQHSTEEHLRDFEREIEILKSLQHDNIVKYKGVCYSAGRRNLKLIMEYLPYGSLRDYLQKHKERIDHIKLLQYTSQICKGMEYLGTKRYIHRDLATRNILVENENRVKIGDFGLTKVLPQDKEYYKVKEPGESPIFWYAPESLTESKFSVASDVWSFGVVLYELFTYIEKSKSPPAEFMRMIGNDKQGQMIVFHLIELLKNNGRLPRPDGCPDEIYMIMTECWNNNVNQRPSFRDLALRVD

Compound | EC50 (JAK1) [nM] | EC50 (JAK2) [nM] | EC50 (JAK3) [nM]
O=C(c1cc(O)[nH]n1)N1CCCN(c2ncnc3[nH]ccc23)CC12CC2 [Example 212, (5-hydroxy-1H-pyrazol-3-yl)-[5-(7H-pyrrolo[2,3-d]pyrimidin-4-yl)-5,9-diazaspiro[2.6]nonan-9-yl]methanone] | 100 to 1000 | 100 to 1000 | 100 to 1000
O=C(c1cncc(F)c1)N1CCCN(c2ncnc3[nH]ccc23)CC12CC2 [Example 214, (5-fluoro-3-pyridyl)-[5-(7H-pyrrolo[2,3-d]pyrimidin-4-yl)-5,9-diazaspiro[2.6]nonan-9-yl]methanone] | 100 to 1000 | 100 to 1000 | 100 to 1000
O=C(Cc1nnn[nH]1)N1CCN(c2ncnc3[nH]ccc23)CC2(CC2)C1 [Example 215, 1-[5-(7H-pyrrolo[2,3-d]pyrimidin-4-yl)-5,8-diazaspiro[2.6]nonan-8-yl]-2-(1H-tetrazol-5-yl)ethanone] | < 100 | < 100 | 100 to 1000
Cc1cc(CC(=O)N2CCCN(c3ncnc4[nH]ccc34)CC23CC3)on1 [Example 217, 2-(3-methylisoxazol-5-yl)-1-[5-(7H-pyrrolo[2,3-d]pyrimidin-4-yl)-5,9-diazaspiro[2.6]nonan-9-yl]ethanone] | 100 to 1000 | 100 to 1000 | > 1000
N#CCN(CC#N)C(=O)N1CCN(c2ncnc3[nH]ccc23)CC2(CC2)C1 [Example 219, N,N-bis(cyanomethyl)-5-(7H-pyrrolo[2,3-d]pyrimidin-4-yl)-5,8-diazaspiro[2.6]nonane-8-carboxamide] | 100 to 1000 | < 100 | 100 to 1000
CN(CCC#N)C(=O)N1CCN(c2ncnc3[nH]ccc23)CC2(CC2)C1 [Example 220, N-(2-cyanoethyl)-N-methyl-5-(7H-pyrrolo[2,3-d]pyrimidin-4-yl)-5,8-diazaspiro[2.6]nonane-8-carboxamide] | 100 to 1000 | 100 to 1000 | 100 to 1000
N#C[C@H]1CCCN1C(=O)N1CCN(c2ncnc3[nH]ccc23)CC2(CC2)C1 [Example 221, (2R)-1-[5-(7H-pyrrolo[2,3-d]pyrimidin-4-yl)-5,8-diazaspiro[2.6]nonane-8-carbonyl]pyrrolidine-2-carbonitrile] | 100 to 1000 | < 100 | 100 to 1000
N#C[C@@H]1CCCN1C(=O)N1CCN(c2ncnc3[nH]ccc23)CC2(CC2)C1 [Example 222, (2S)-1-[5-(7H-pyrrolo[2,3-d]pyrimidin-4-yl)-5,8-diazaspiro[2.6]nonane-8-carbonyl]pyrrolidine-2-carbonitrile] | 100 to 1000 | < 100 | 100 to 1000

Further lines, results first:

EC50 (JAK1) [nM] | EC50 (JAK2) [nM] | EC50 (JAK3) [nM] | Compound
100 to 1000 | 100 to 1000 | > 1000 | O=C(c1cncc(F)c1)N1CCN(c2ncnc3[nH]ccc23)CC2(CC2)C1 [Example 213, (5-fluoro-3-pyridyl)-[5-(7H-pyrrolo[2,3-d]pyrimidin-4-yl)-5,8-diazaspiro[2.6]nonan-8-yl]methanone]
100 to 1000 | 100 to 1000 | 100 to 1000 | O=C(c1cscn1)N1CCN(c2ncnc3[nH]ccc23)CC2(CC2)C1 [Example 216, [5-(7H-pyrrolo[2,3-d]pyrimidin-4-yl)-5,8-diazaspiro[2.6]nonan-8-yl]-thiazol-4-yl-methanone]
100 to 1000 | < 100 | 100 to 1000 | CN(CC#N)C(=O)N1CCN(c2ncnc3[nH]ccc23)CC2(CC2)C1 [Example 218, N-(cyanomethyl)-N-methyl-5-(7H-pyrrolo[2,3-d]pyrimidin-4-yl)-5,8-diazaspiro[2.6]nonane-8-carboxamide]
100 to 1000 | 100 to 1000 | 100 to 1000 | CC(C)N(C)C(=O)N1CCN(c2ncnc3[nH]ccc23)CC2(CC2)C1 [Example 223, N-isopropyl-N-methyl-5-(7H-pyrrolo[2,3-d]pyrimidin-4-yl)-5,8-diazaspiro[2.6]nonane-8-carboxamide]
